{"source": "patent US12318390B2", "about": "“Pharmaceutical composition for oral administration comprising aminopyrimidine derivative or its salt” (YUHAN CORPORATION, priority 2018, dated 2025)", "key": {"[1]": {"test": "Solubility test", "assay_type": "physicochemical", "conditions": "thermodynamic from solid, 37° C.", "experimental": "In addition, 100 mg of Lazertinib free-base (prepared in the same manner as the method described in WO 2016/060443) was tested under the same conditions."}, "[2]": {"test": "Comparative pharmacokinetic test in normal rats", "assay_type": "in vivo, rats (SD rat)", "excerpt": "(§1) Specifically, in the normal rats and the esomeprazole-treated rats, maximum blood concentrations (Cmax) and areas under the blood concentration curve (AUClast) were compared with each other, respectively, to evaluate the absorption of drugs in animals."}, "[3]": {"test": "Comparative pharmacokinetic test in esomeprazole-treated rats", "assay_type": "in vivo, rats (SD rat)", "conditions": "for area under the blood concentration curve reduced compared with the normal rats / maximum blood concentration reduced compared with the normal rats: esomeprazole-treated rats vs normal rats", "excerpt": "as §1\nThe results (the maximum blood concentration and the area under the blood concentration curve) of the comparative pharmacokinetic test obtained therefrom were shown in Table 7 and FIGS. 5 and 6."}, "[4]": {"test": "Pharmacokinetic test for Lazertinib mesylate and free-base in beagle dogs", "assay_type": "in vivo", "conditions": "beagle dog", "excerpt": "The results (the maximum blood concentration and the area under the blood concentration curve) of the comparative pharmacokinetic test obtained therefrom were shown in Table 8 and FIG. 7."}, "[5]": {"test": "Stability test under stressed condition", "assay_type": "physicochemical", "conditions": "for PXRD pattern: stressed condition 60 ± 2° C., 75 ± 5% RH; for Purity: HPLC"}, "[6]": {"test": "Stability test under accelerated condition", "assay_type": "physicochemical", "conditions": "for Purity: HPLC"}, "[7]": {"conditions": "esomeprazole-treated rats, oral 30 mg/kg"}, "[8]": {"conditions": "stressed condition, Start to 4 weeks"}, "[9]": {"conditions": "accelerated condition, 3 months"}, "[10]": {"conditions": "accelerated condition, 6 months"}, "[11]": {"conditions": "accelerated condition, Start to 6 months"}, "[12]": {"conditions": "Normal rat, oral 30 mg/5 mL/kg in 0.5% methyl cellulose"}, "[13]": {"conditions": "Esomeprazole-treated rat (5 mg/kg i.v. for 3 days), oral 30 mg/5 mL/kg"}, "[14]": {"conditions": "oral 5 mg/2 mL/kg in 0.5% methyl cellulose"}}, "data": [{"molecule": "C=CC(=O)Nc1cc(Nc2nccc(-n3cc(CN(C)C)c(-c4ccccc4)n3)n2)c(OC)cc1N1CCOCC1", "note": "[Lazertinib free-base, N-(5-(4-(4-((dimethylamino)methyl)-3-phenyl-1H-pyrazol-1-yl)pirimidine-2-ylamino)-4-methoxy-2-morpholinophenyl)acrylamide]", "values": [{"measurement": "solubility at 12 h", "setting": "[1]; fassgf or other biorelevant, Artificial gastric juice (FaSSGF)", "result": 1500, "unit": "µg/mL"}, {"measurement": "solubility at 12 h", "setting": "[1]; organic solvent or mixture, Ethanol", "result": 599, "unit": "µg/mL"}, {"measurement": "solubility at 12 h", "setting": "[1]; pH 1.2 buffer solution, simulated gastric fluid, pH 1.2 buffer", "result": 4400, "unit": "µg/mL"}, {"measurement": "solubility at 12 h", "setting": "[1]; pH 2.0 buffer solution, simulated gastric fluid, pH 2.0 buffer", "result": 3700, "unit": "µg/mL"}, {"measurement": "solubility at 12 h", "setting": "[1]; pH 3.0 buffer solution, aqueous buffer, pH 3.0 buffer", "result": 1900, "unit": "µg/mL"}, {"measurement": "solubility at 12 h", "setting": "[1]; pH 4.0 buffer solution, aqueous buffer, pH 4.0 buffer", "result": 1000, "unit": "µg/mL"}, {"measurement": "solubility at 12 h", "setting": "[1]; pH 5.0 buffer solution, aqueous buffer, pH 5.0 buffer", "result": 10, "unit": "µg/mL"}, {"measurement": "solubility at 12 h", "setting": "[1]; pH 6.0 buffer solution, aqueous buffer, pH 6.0 buffer", "result": 3, "unit": "µg/mL"}, {"measurement": "solubility at 12 h", "setting": "[1]; pH 7.0 buffer solution, aqueous buffer, pH 7.0 buffer", "result": 1, "unit": "µg/mL"}, {"measurement": "solubility at 12 h", "setting": "[1]; Artificial intestinal fluid (FaSSIF)", "result": 27, "unit": "µg/mL"}, {"measurement": "solubility at 12 h", "setting": "[1]; water", "result": 1, "unit": "µg/mL"}, {"measurement": "AUC(0-t)", "setting": "[2]; male, SD, blood, 30 mg/kg, Normal rat, oral 30 mg/5 mL/kg in 0.5% methyl cellulose, read-out: Area under the blood concentration curve (AUClast)", "result": 7290, "unit": "ng·h/mL"}, {"measurement": "Cmax", "setting": "[2]; male, SD, blood, 30 mg/kg, Normal rat, oral 30 mg/5 mL/kg in 0.5% methyl cellulose, read-out: Maximum blood concentration (Cmax)", "result": 726, "unit": "ng/mL"}, {"measurement": "area under the blood concentration curve lower than Lazertinib mesylate", "setting": "[2]; normal rats, oral 30 mg/kg", "result": 10.4, "unit": "%"}, {"measurement": "maximum blood concentration lower than Lazertinib mesylate", "setting": "[2]; normal rats, oral 30 mg/kg", "result": 11.0, "unit": "%"}, {"measurement": "area under the blood concentration curve reduced compared with the normal rats", "setting": "[3]", "result": 63.8, "unit": "%"}, {"measurement": "maximum blood concentration reduced compared with the normal rats", "setting": "[3]", "result": 69.3, "unit": "%"}, {"measurement": "area under the blood concentration curve lower than Lazertinib mesylate", "setting": "[3]; [7]", "result": 49.4, "unit": "%"}, {"measurement": "maximum blood concentration lower than Lazertinib mesylate", "setting": "[3]; [7]", "result": 47.8, "unit": "%"}, {"measurement": "AUC(0-t)", "setting": "[3]; male, SD, blood, Esomeprazole-treated rat (i.v. for 3 days), oral 30 mg/5 mL/kg, read-out: Area under the blood concentration curve (AUClast)", "result": 2640, "unit": "ng·h/mL"}, {"measurement": "Cmax", "setting": "[3]; male, SD, blood, Esomeprazole-treated rat (i.v. for 3 days), oral 30 mg/5 mL/kg, read-out: Maximum blood concentration (Cmax)", "result": 223, "unit": "ng/mL"}, {"measurement": "area under the blood concentration curve lower than Lazertinib mesylate", "setting": "[4]; oral 5 mg/kg", "result": 50.4, "unit": "%"}, {"measurement": "maximum blood concentration lower than Lazertinib mesylate", "setting": "[4]; oral 5 mg/kg", "result": 40.1, "unit": "%"}, {"measurement": "AUC(0-t)", "setting": "[4]; male, blood, 5 mg/kg, oral 5 mg/2 mL/kg in 0.5% methyl cellulose, read-out: Area under the blood concentration curve (AUClast)", "result": 379, "unit": "ng·h/mL"}, {"measurement": "Cmax", "setting": "[4]; male, blood, 5 mg/kg, oral 5 mg/2 mL/kg in 0.5% methyl cellulose, read-out: Maximum blood concentration (Cmax)", "result": 80.7, "unit": "ng/mL"}]}, {"molecule": "mesylic acid salt of N-(5-(4-(4-((dimethylamino)methyl)-3-phenyl-1H-pyrazol-1-yl)pirimidine-2-ylamino)-4-methoxy-2-morpholinophenyl)acrylamide [Lazertinib mesylate]", "values": [{"measurement": "PXRD pattern", "setting": "[5]; 2 weeks", "result": "Same"}, {"measurement": "PXRD pattern", "setting": "[5]; 4 weeks", "result": "Same"}, {"measurement": "Appearance (color)", "setting": "[5]; stressed condition, 2 weeks", "result": "White"}, {"measurement": "Content", "setting": "[5]; stressed condition, 2 weeks", "result": 97.7, "unit": "%"}, {"measurement": "DSC Onset", "setting": "[5]; stressed condition, 2 weeks", "result": 214, "unit": "°C"}, {"measurement": "Water Content", "setting": "[5]; stressed condition, 2 weeks", "result": 2.71, "unit": "%"}, {"measurement": "Purity", "setting": "[5]; stressed condition, 2 weeks", "result": 99.3, "unit": "%"}, {"measurement": "Appearance (color)", "setting": "[5]; stressed condition, 4 weeks", "result": "White"}, {"measurement": "Content", "setting": "[5]; stressed condition, 4 weeks", "result": 98.9, "unit": "%"}, {"measurement": "DSC Onset", "setting": "[5]; stressed condition, 4 weeks", "result": 214, "unit": "°C"}, {"measurement": "Water Content", "setting": "[5]; stressed condition, 4 weeks", "result": 2.70, "unit": "%"}, {"measurement": "Purity", "setting": "[5]; stressed condition, 4 weeks", "result": 99.3, "unit": "%"}, {"measurement": "Appearance (color)", "setting": "[5]; stressed condition, Start", "result": "White"}, {"measurement": "Content", "setting": "[5]; stressed condition, Start", "result": 98.8, "unit": "%"}, {"measurement": "DSC Onset", "setting": "[5]; stressed condition, Start", "result": 214, "unit": "°C"}, {"measurement": "Water Content", "setting": "[5]; stressed condition, Start", "result": 2.48, "unit": "%"}, {"measurement": "Content Variation", "setting": "[5]; [8]", "result": "+0.1%"}, {"measurement": "Purity Variation", "setting": "[5]; [8]", "result": "+0.1%"}, {"measurement": "Water Content Variation", "setting": "[5]; [8]", "result": "+0.22%"}, {"measurement": "Purity", "setting": "[5]; stressed condition, Start", "result": 99.2, "unit": "%"}, {"measurement": "PXRD pattern", "setting": "[6]; accelerated condition 40 ± 2° C., 75 ± 5% RH, 1 month", "result": "Same"}, {"measurement": "Appearance (color)", "setting": "[6]; accelerated condition, 1 month", "result": "White"}, {"measurement": "Content", "setting": "[6]; accelerated condition, 1 month", "result": 98.9, "unit": "%"}, {"measurement": "DSC Onset", "setting": "[6]; accelerated condition, 1 month", "result": 214, "unit": "°C"}, {"measurement": "Water Content", "setting": "[6]; accelerated condition, 1 month", "result": 2.73, "unit": "%"}, {"measurement": "Purity", "setting": "[6]; accelerated condition, 1 month", "result": 99.3, "unit": "%"}, {"measurement": "Appearance (color)", "setting": "[6]; [9]", "result": "White"}, {"measurement": "Content", "setting": "[6]; [9]", "result": 98.9, "unit": "%"}, {"measurement": "DSC Onset", "setting": "[6]; [9]", "result": 214, "unit": "°C"}, {"measurement": "PXRD pattern", "setting": "[6]; [9]", "result": "Same"}, {"measurement": "Water Content", "setting": "[6]; [9]", "result": 3.19, "unit": "%"}, {"measurement": "Purity", "setting": "[6]; [9]", "result": 99.3, "unit": "%"}, {"measurement": "Appearance (color)", "setting": "[6]; [10]", "result": "White"}, {"measurement": "Content", "setting": "[6]; [10]", "result": 99.1, "unit": "%"}, {"measurement": "DSC Onset", "setting": "[6]; [10]", "result": 214, "unit": "°C"}, {"measurement": "PXRD pattern", "setting": "[6]; [10]", "result": "Same"}, {"measurement": "Water Content", "setting": "[6]; [10]", "result": 3.01, "unit": "%"}, {"measurement": "Purity", "setting": "[6]; [10]", "result": 99.3, "unit": "%"}, {"measurement": "Appearance (color)", "setting": "[6]; accelerated condition, Start", "result": "White"}, {"measurement": "Content", "setting": "[6]; accelerated condition, Start", "result": 98.8, "unit": "%"}, {"measurement": "DSC Onset", "setting": "[6]; accelerated condition, Start", "result": 214, "unit": "°C"}, {"measurement": "Water Content", "setting": "[6]; accelerated condition, Start", "result": 2.48, "unit": "%"}, {"measurement": "Content Variation", "setting": "[6]; [11]", "result": "+0.3%"}, {"measurement": "Purity Variation", "setting": "[6]; [11]", "result": "+0.1%"}, {"measurement": "Water Content Variation", "setting": "[6]; [11]", "result": "+0.53%"}, {"measurement": "Purity", "setting": "[6]; accelerated condition, Start", "result": 99.2, "unit": "%"}, {"measurement": "Area under the blood concentration curve (AUClast)", "setting": "[2]; [12]", "result": 8139.0, "unit": "ng·h/mL"}, {"measurement": "Maximum blood concentration (Cmax)", "setting": "[2]; [12]", "result": 815.6, "unit": "ng/mL"}, {"measurement": "Area under the blood concentration curve (AUClast)", "setting": "[3]; [13]", "result": 5210.9, "unit": "ng·h/mL"}, {"measurement": "Maximum blood concentration (Cmax)", "setting": "[3]; [13]", "result": 427.5, "unit": "ng/mL"}, {"measurement": "area under the blood concentration curve reduced compared with the normal rats", "setting": "[3]", "result": 36.0, "unit": "%"}, {"measurement": "maximum blood concentration reduced compared with the normal rats", "setting": "[3]", "result": 47.6, "unit": "%"}, {"measurement": "Area under the blood concentration curve (AUClast)", "setting": "[4]; [14]", "result": 811.5, "unit": "ng·h/mL"}, {"measurement": "Maximum blood concentration (Cmax)", "setting": "[4]; [14]", "result": 134.7, "unit": "ng/mL"}]}]}
